From ChEMBL document CHEMBL1128997, “Synthesis and antitumor activity of a new class of water soluble camptothecin derivatives” (Bioorg Med Chem Lett, 1996)

What was measured:
L1210 = test: Compound was tested in vitro for cytotoxicity against L1210 murine leukemia cells.; type: functional, cell-based; details: Mus musculus
DNA topoisomerase 1 = target: T1, DNA topoisomerase 1 (Homo sapiens, UniProt P11387); test: Compound was tested in vitro for inhibition of topoisomerase I.
T1 sequence (P11387 whole entry): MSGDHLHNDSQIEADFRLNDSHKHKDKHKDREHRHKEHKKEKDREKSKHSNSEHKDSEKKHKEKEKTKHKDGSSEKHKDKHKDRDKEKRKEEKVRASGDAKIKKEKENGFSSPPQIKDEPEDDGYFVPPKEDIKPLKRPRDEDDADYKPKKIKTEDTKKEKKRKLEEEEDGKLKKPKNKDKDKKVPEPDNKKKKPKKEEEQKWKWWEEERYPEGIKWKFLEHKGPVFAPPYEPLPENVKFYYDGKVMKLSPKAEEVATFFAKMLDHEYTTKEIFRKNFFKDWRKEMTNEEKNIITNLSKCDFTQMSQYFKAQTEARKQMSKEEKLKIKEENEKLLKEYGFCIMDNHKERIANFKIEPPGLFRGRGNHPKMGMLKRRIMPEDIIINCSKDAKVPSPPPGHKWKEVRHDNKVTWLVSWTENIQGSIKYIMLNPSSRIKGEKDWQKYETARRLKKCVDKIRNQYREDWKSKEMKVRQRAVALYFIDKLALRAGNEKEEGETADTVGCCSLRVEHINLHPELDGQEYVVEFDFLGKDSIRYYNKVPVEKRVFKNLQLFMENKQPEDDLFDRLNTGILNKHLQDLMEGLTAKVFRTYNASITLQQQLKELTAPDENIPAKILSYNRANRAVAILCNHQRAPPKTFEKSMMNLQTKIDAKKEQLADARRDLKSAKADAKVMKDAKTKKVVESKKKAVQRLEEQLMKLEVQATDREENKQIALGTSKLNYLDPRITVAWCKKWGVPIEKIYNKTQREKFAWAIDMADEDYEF

Mus musculus [1] = test: Activity against L1210 ascitic leukemia expressed as ratio of the median survival time of treated mice to that of untreated control X 100 after ip administration at a optimal dose of 10 mg/Kg; type: functional
Mus musculus [2] = test: Activity against L1210 ascitic leukemia expressed as ratio of the median survival time of treated mice to that of untreated control X 100 after iv administration at a optimal dose of 15 mg/Kg; type: functional
Mus musculus [3] = test: Activity against L1210 ascitic leukemia expressed as ratio of the median survival time of treated mice to that of untreated control X 100 after ip administration at a optimal dose of 15 mg/Kg; type: functional
Mus musculus [4] = test: Activity against L1210 ascitic leukemia expressed as ratio of the median survival time of treated mice to that of untreated control X 100 after iv administration at a optimal dose of 20 mg/Kg; type: functional
Mus musculus [5] = test: Activity against L1210 ascitic leukemia expressed as ratio of the median survival time of treated mice to that of untreated control X 100 after iv administration at a optimal dose of 2.5 mg/Kg; type: functional
Mus musculus [6] = test: Activity against L1210 ascitic leukemia expressed as ratio of the median survival time of treated mice to that of untreated control X 100 after ip administration at a optimal dose of 1.5 mg/Kg; type: functional

| Compound | IC50 (L1210) | IC50 (DNA topoisomerase 1) | T/C (Mus musculus [1]) | T/C (Mus musculus [2]) | T/C (Mus musculus [3]) | T/C (Mus musculus [4]) | T/C (Mus musculus [5]) | T/C (Mus musculus [6]) |
| --- | --- | --- | --- | --- | --- | --- | --- | --- |
| CCc1c2c(nc3cccc(/N=C/N(C)C)c13)-c1cc3c(c(=O)n1C2)COC(=O)[C@]3(O)CC | 52.4 nM | 3.6 µM |  |  |  |  |  |  |
| CC[C@@]1(O)C(=O)OCc2c1cc1n(c2=O)Cc2cc3c(/N=C/N4CCOCC4)cccc3nc2-1 | 125 nM | 69 µM |  |  |  |  |  |  |
| CC[C@@]1(O)C(=O)OCc2c1cc1n(c2=O)Cc2cc3c(N/C=N/C)cccc3nc2-1.Cl | 52 nM | 6.6 µM | 169% | 167% |  |  |  |  |
| CC[C@@]1(O)C(=O)OCc2c1cc1n(c2=O)Cc2cc3c(NC=N)cccc3nc2-1.Cl | 92.5 nM | 20.4 µM |  | 143% | 219% |  |  |  |
| CC[C@@]1(O)C(=O)OCc2c1cc1n(c2=O)Cc2cc3c(/N=C/N(C)C)cccc3nc2-1.Cl | 108 nM | 19.2 µM |  |  | 175% | 200% |  |  |
| CC[C@@]1(O)C(=O)OCc2c1cc1n(c2=O)Cc2cc3c(/N=C/N(C)c4ccccc4)cccc3nc2-1 | 28.1 nM | 2.2 µM |  |  |  |  |  |  |
| CC[C@@]1(O)C(=O)OCc2c1cc1n(c2=O)Cc2cc3cc(/N=C/N(C)C)ccc3nc2-1 | 94.5 nM | 42 µM |  |  |  |  |  |  |
| CC[C@@]1(O)C(=O)OCc2c1cc1n(c2=O)Cc2cc3c(/N=C(\C)N(C)C)cccc3nc2-1 | 689 nM | 3.5 µM |  |  |  |  |  |  |
| CC[C@@]1(O)C(=O)OCc2c1cc1n(c2=O)Cc2cc3c(N)cccc3nc2-1 [9-AMINOCAMPTOTHECIN] | 12.7 nM | 4.2 µM |  |  |  |  | 138% | 163% |
